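Cultured in 96-well plates, cells were exposed to test compound for 48 hours across five concentrations. GI50 is the concentration that inhibits growth by half. The concentration for full growth arrest is given as TGI.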 Where a SMILES comes first, the peptide text is derived from it. The star is where a group is joined. Cbz = O=C(OCc1ccccc1)*; NHNH2 = NN*
What was measured:
Test in all cases: inhibition of tumour cell growth, NCI panel, 48 h
NCI-H460 lung = test system: NCI-H460 lung
HOP-62 NSCLC = test system: HOP-62 NSCLC
SF-539 CNS = test system: SF-539 CNS
TK-10 renal = test system: TK-10 renal
NCI-H23 lung = test system: NCI-H23 lung
MDA-MB-435 = test system: MDA-MB-435
UACC-62 melanoma = test system: UACC-62 melanoma
SK-MEL-5 melanoma = test system: SK-MEL-5 melanoma
NCI-H226 lung = test system: NCI-H226 lung
A498 renal = test system: A498 renal

SMILES	TGI (NCI-H460 lung) [µM]	TGI (HOP-62 NSCLC) [µM]	TGI (SF-539 CNS) [µM]	TGI (TK-10 renal) [µM]	TGI (NCI-H23 lung) [µM]	TGI (MDA-MB-435) [µM]	TGI (UACC-62 melanoma) [µM]	TGI (SK-MEL-5 melanoma) [µM]	TGI (NCI-H226 lung) [µM]	TGI (A498 renal) [µM]	GI50 (NCI-H460 lung) [µM]	GI50 (NCI-H226 lung) [µM]	GI50 (A498 renal) [µM]	GI50 (SF-539 CNS) [µM]	GI50 (TK-10 renal) [µM]	GI50 (NCI-H23 lung) [µM]	GI50 (MDA-MB-435) [µM]	GI50 (UACC-62 melanoma) [µM]	GI50 (SK-MEL-5 melanoma) [µM]
Nc1ccc2[nH]c(-c3cccc(Cl)c3)cc(=O)c2c1	> 100	> 100	5.15	8.55	> 100	2.39	> 100	> 100											
O=C(N/N=C/c1cc(Br)cc(Br)c1[O-])c1ccccc1O.O=C(N/N=C/c1cc(Br)cc(Br)c1[O-])c1ccccc1O.[Fe+2]	22.2	8.53	14.1	28.5	9.66		10.5	23.4	7.41										
CCC(C)C(=O)OC1CC2(C)C(c3ccoc3)OC(=O)CC23OC2(C)OC34C(OC(=O)C(C)C)C3(O)C(OC(=O)C5(C)OC5C)C5(C)CC3(O)C(C)(C5CC(=O)OC)C14O2 (stereo unspecified)	> 100		79.6	> 100	> 100	> 100	> 100	87	> 100	> 100									
CNC(=O)N(CCC#N)[C@H]1CCCC[C@@H]1N(C(=O)NC)c1ccccc1	> 100	> 100	> 100	> 100	> 100	> 100	> 100	> 100	> 100										
COc1ccc2cc(NC(=O)N/N=C\c3ccc(Cl)cc3)ccc2c1	> 100	> 100	> 100	> 100	> 100	> 100	> 100		> 100										
N#Cc1c(-c2ccc(F)cc2)nc(N/N=C/c2c[nH]c3ccccc23)nc1N1CCOCC1	25.2		23	61	92.7	74.9	27.4	25.9	88	11.5	3.48	24.2	1.33	3.68	15.5	21.2	9.26	11.4	10.9
O=C(O)C(CS)N=c1c2ccccc2n(O)c2ccccc12 (stereo unspecified)	> 100	> 100		> 100	> 100		> 100	> 100	> 100	> 100									
CCCCN=C(NC#N)NCCCC	> 100	> 100	> 100	> 100	> 100		> 100	> 100	> 100	> 100									
COC(=O)C1=Nc2c(C)nn(-c3ccccc3)c2N=C(c2ccc([N+](=O)[O-])cc2)C1		> 10	> 10	> 10	> 10	> 10	> 10	> 10											
NC(N)=Nc1ncccc1[N+](=O)[O-]	> 100	> 100	> 100		> 100		> 100	> 100	> 100	> 100									
CCOC(=O)C1=C(OC(OCC)C(CC)[Se]c2ccccc2)CCCC1 (stereo unspecified)	> 100	> 100	35.4	> 100	25.5		62.9	35.8	61.3	> 100									
Cc1cn(C(C)OCCN2C(=O)c3ccccc3C2=O)c(=O)[nH]c1=O (stereo unspecified)	> 100	> 100	> 100		> 100	> 100	> 100	> 100	> 100	> 100									
COCC1OC(N2C(=O)NC(=O)[C@@H]3C=C4CCCCC4=C[C@@H]32)C(OC)C1OC (stereo partly specified)	> 100	> 100	> 100	> 100		> 100	> 100		> 100	> 100									
COc1ccc(-c2c(C#N)c(N)nc3c2CCS(=O)(=O)c2ccccc2-3)cc1	> 100			> 100	> 100	> 100	> 100	> 100	> 100	> 100									
O=C(O)C(CO)NC(=O)n1c2ccccc2c2ccccc21 (stereo unspecified)	> 100	> 100	> 100	> 100	> 100		> 100	> 100	> 100										
COC(=O)CC(NC(=O)OCc1ccccc1)C(=O)NC(CC(=O)OC)C(=O)NC(CC(=O)OC)C(=O)NC(CC(=O)OC)C(=O)NC(CC(=O)OC)C(=O)NC(CC(=O)OC)C(=O)NN (stereo unspecified) (Cbz-D(OMe)D(OMe)D(OMe)D(OMe)D(OMe)D(OMe)-NHNH2; configuration not given here)	> 100	> 100	> 100	> 100		> 100	> 100	> 100											
CSc1nc2c(c(=O)n1C)N=C(c1ccccc1)[C@H](C(CC(=O)c1ccccc1)c1ccccc1)C(c1ccccc1)N2 (stereo partly specified)	> 100	> 100	> 100		> 100	> 100	> 100	> 100	> 100	> 100									
COC(=O)c1c/c(=N\NC(=O)CC(=O)Nc2ccccc2OC)c2ccccc2o1	> 100	> 100	> 100	> 100	> 100		> 100	> 100	> 100	> 100									
CCN1CCC(O)(C(C(=O)O)c2ccccc2)CC1 (stereo unspecified)	> 100	> 100		> 100	> 100	> 100	> 100	> 100	> 100	> 100									
COC(=O)/C(=N/NC(=O)C[N+](C)(C)C)C(C(=O)OC)C(=O)C(=O)Nc1ccc(F)cc1 (stereo unspecified)	> 100	> 100	> 100	> 100	> 100		> 100	> 100	> 100	> 100									
CC1(C)OCC2OC3([C@H]4OC(C)(C)O[C@@H]4CO)OC(C)(C)OC3C2O1 (stereo partly specified)	> 100	> 100	> 100		> 100	> 100	> 100	> 100	> 100	> 100									

— PubChem BioAssay (NCI)
